Results as given in US9029080B2, “Screening assay for insecticides” (priority 2008, dated 2015).

Molecular target: T1, ShaI/KChIP (Drosophila melanogaster, UniProt P17971)
T1 construct: expressed in transfected cells; subclone 18-13-20
T1 sequence (P17971 with tags, fused parts or gaps isoform P17971-1): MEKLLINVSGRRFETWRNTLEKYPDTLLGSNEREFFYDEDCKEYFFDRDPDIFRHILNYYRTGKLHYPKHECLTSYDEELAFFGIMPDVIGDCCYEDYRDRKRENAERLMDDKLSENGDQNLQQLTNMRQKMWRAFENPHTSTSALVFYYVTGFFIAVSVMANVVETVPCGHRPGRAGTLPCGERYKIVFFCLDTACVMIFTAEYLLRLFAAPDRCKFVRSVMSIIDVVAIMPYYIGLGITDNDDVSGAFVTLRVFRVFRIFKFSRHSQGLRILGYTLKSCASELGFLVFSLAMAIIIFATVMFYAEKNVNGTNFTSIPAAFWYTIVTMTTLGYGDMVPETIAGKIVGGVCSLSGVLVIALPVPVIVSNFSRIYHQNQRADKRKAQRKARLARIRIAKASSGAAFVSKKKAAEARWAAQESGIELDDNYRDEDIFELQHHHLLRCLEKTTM
Experiment: Whole-cell patch clamp on ShaI/KChIP 20 cells
Type: cell-based
Conditions: 100 uM [final], incubation five minutes
Procedure: Chinese hamster ovary (CHO) cells transfected with (a) a Drosophila ShaI gene (b) a Drosophila ShaI pore mutant gene and (c) a Drosophila ShaI+KChIP gene, and were used for all measurements. Cells were plated in 35 mm Petri dishes 2-6 hours before the experiment.
Data were acquired and analyzed using pClamp software (version 9.0.1.16). The whole-cell configuration of the patch-clamp technique was used to voltage clamp cells at room temperature (22-25° C.). Pipettes were pulled from borosilicate glass capillaries (#8250, Garner Glass, Claremont, Calif.) using a DMZ Universal Puller (Zeitz, Munich, Germany) and had resistances of 1-2 MOhm when filled with pipette solution and measured in bath solution. The liquid junction potential between bath and pipette solution was always compensated before the formation of a gigaohm seal.
Membrane current was measured under whole-cell clamp, sampled at 2 kHz and filtered at 1 kHz by an Axoclamp 200B (Axon Instruments). […]
To study ShaI currents on CHO cells, cells were held at −70 mV and a family of 500 ms test voltage pulses was applied starting from −70 to +70 mV, or +100 mV, in 10 mV increments. The amplitude, as measured for the current-voltage relationship, was defined as the maximal current at a given membrane potential. […]
FIG. 13: ShaI/KChIP inhibited by arachidonic acid. […] Pre- and post-compound currents were measured under whole-cell clamp. […]

- inhibition of total ShaI/KChIP current: Complete inhibition
Structure (SMILES): CCCCC/C=C\C/C=C\C/C=C\C/C=C\CCCC(=O)O [arachidonic acid]
